Assay results reported in paper PMC11921695 (BMC Cancer, 2025).

System: patients with HIV-associated KS

## Cn1cnc2c(F)c(Nc3ccc(Br)cc3Cl)c(C(=O)NOCCO)cc21 [selumetinib, 6-(4-Bromo-2-chloro-phenylamino)-7-fluro-3-methyl-3 H-benzoimidazole-5-carboxylic acid (2-hydroxy-ethoxy)-amide hydrogen sulphate]
N = patients, any dose
  Blood and lymphatic system disorders: Adverse Events Grade3 N: 0
  Blood and lymphatic system disorders: Adverse Reactions Grade 1 N: 3
  Blood and lymphatic system disorders: Adverse Reactions Grade 2 N: 1
  Blood and lymphatic system disorders: Adverse Reactions Grade 3 N: 0
  Cardiac disorders: Adverse Events Grade 1 N: 1
  Cardiac disorders: Adverse Events Grade 2 N: 0
  Cardiac disorders: Adverse Events Grade3 N: 0
  Cardiac disorders: Adverse Reactions Grade 1 N: 0
  Cardiac disorders: Adverse Reactions Grade 2 N: 0
  Cardiac disorders: Adverse Reactions Grade 3 N: 0
  Eye disorders: Adverse Events Grade 1 N: 6
  Eye disorders: Adverse Events Grade 2 N: 3
  Eye disorders: Adverse Events Grade3 N: 0
  Eye disorders: Adverse Reactions Grade 1 N: 5
  Eye disorders: Adverse Reactions Grade 2 N: 3
  Eye disorders: Adverse Reactions Grade 3 N: 0
  Gastrointestinal disorders: Adverse Events Grade 1 N: 12
  Gastrointestinal disorders: Adverse Events Grade 2 N: 7
  Gastrointestinal disorders: Adverse Events Grade3 N: 0
  Gastrointestinal disorders: Adverse Reactions Grade 1 N: 12
  Gastrointestinal disorders: Adverse Reactions Grade 2 N: 6
  Gastrointestinal disorders: Adverse Reactions Grade 3 N: 0
  General disorders and administration site conditions: Adverse Events Grade 1 N: 11
  General disorders and administration site conditions: Adverse Events Grade 2 N: 5
  General disorders and administration site conditions: Adverse Events Grade3 N: 1
  General disorders and administration site conditions: Adverse Reactions Grade 1 N: 10
  General disorders and administration site conditions: Adverse Reactions Grade 2 N: 2
  General disorders and administration site conditions: Adverse Reactions Grade 3 N: 0
  Infections and infestations: Adverse Events Grade 1 N: 2
  Infections and infestations: Adverse Events Grade 2 N: 4
  Infections and infestations: Adverse Events Grade3 N: 0
  Infections and infestations: Adverse Reactions Grade 1 N: 1
  Infections and infestations: Adverse Reactions Grade 2 N: 3
  Infections and infestations: Adverse Reactions Grade 3 N: 0
  Injury, poisoning and procedural complications: Adverse Events Grade 1 N: 2
  Injury, poisoning and procedural complications: Adverse Events Grade 2 N: 1
  Injury, poisoning and procedural complications: Adverse Events Grade3 N: 0
  Injury, poisoning and procedural complications: Adverse Reactions Grade 1 N: 0
  Injury, poisoning and procedural complications: Adverse Reactions Grade 2 N: 0
  Injury, poisoning and procedural complications: Adverse Reactions Grade 3 N: 0
  Investigations: Adverse Events Grade 1 N: 15
  Investigations: Adverse Events Grade 2 N: 4
  Investigations: Adverse Events Grade3 N: 2
  Investigations: Adverse Reactions Grade 1 N: 14
  Investigations: Adverse Reactions Grade 2 N: 3
  Investigations: Adverse Reactions Grade 3 N: 0
  Metabolism and nutrition disorders: Adverse Events Grade 1 N: 5
  Metabolism and nutrition disorders: Adverse Events Grade 2 N: 0
  Metabolism and nutrition disorders: Adverse Events Grade3 N: 0
  Metabolism and nutrition disorders: Adverse Reactions Grade 1 N: 5
  Metabolism and nutrition disorders: Adverse Reactions Grade 2 N: 0
  Metabolism and nutrition disorders: Adverse Reactions Grade 3 N: 0
  Musculoskeletal and connective tissue disorders: Adverse Events Grade 1 N: 4
  Musculoskeletal and connective tissue disorders: Adverse Events Grade 2 N: 0
  Musculoskeletal and connective tissue disorders: Adverse Events Grade3 N: 0
  Musculoskeletal and connective tissue disorders: Adverse Reactions Grade 1 N: 2
  Musculoskeletal and connective tissue disorders: Adverse Reactions Grade 2 N: 0
  Musculoskeletal and connective tissue disorders: Adverse Reactions Grade 3 N: 0
  Nervous system disorders: Adverse Events Grade 1 N: 4
  Nervous system disorders: Adverse Events Grade 2 N: 0
  Nervous system disorders: Adverse Events Grade3 N: 0
  Nervous system disorders: Adverse Reactions Grade 1 N: 4
  Nervous system disorders: Adverse Reactions Grade 2 N: 0
  Nervous system disorders: Adverse Reactions Grade 3 N: 0
  Psychiatric disorders: Adverse Events Grade 1 N: 3
  Psychiatric disorders: Adverse Events Grade 2 N: 0
  Psychiatric disorders: Adverse Events Grade3 N: 0
  Psychiatric disorders: Adverse Reactions Grade 1 N: 3
  Psychiatric disorders: Adverse Reactions Grade 2 N: 0
  Psychiatric disorders: Adverse Reactions Grade 3 N: 0
  Renal and urinary disorders: Adverse Events Grade 1 N: 2
  Renal and urinary disorders: Adverse Events Grade 2 N: 0
  Renal and urinary disorders: Adverse Events Grade3 N: 0
  Renal and urinary disorders: Adverse Reactions Grade 1 N: 1
  Renal and urinary disorders: Adverse Reactions Grade 2 N: 0
  Renal and urinary disorders: Adverse Reactions Grade 3 N: 0
  Respiratory, thoracic and mediastinal disorders: Adverse Events Grade 1 N: 4
  Respiratory, thoracic and mediastinal disorders: Adverse Events Grade 2 N: 1
  Respiratory, thoracic and mediastinal disorders: Adverse Events Grade3 N: 0
  Respiratory, thoracic and mediastinal disorders: Adverse Reactions Grade 1 N: 4
  Respiratory, thoracic and mediastinal disorders: Adverse Reactions Grade 2 N: 1
  Respiratory, thoracic and mediastinal disorders: Adverse Reactions Grade 3 N: 0
  Skin and subcutaneous tissue disorders: Adverse Events Grade 1 N: 10
  Skin and subcutaneous tissue disorders: Adverse Events Grade 2 N: 9
  Skin and subcutaneous tissue disorders: Adverse Events Grade3 N: 3
  Skin and subcutaneous tissue disorders: Adverse Reactions Grade 1 N: 10
  Skin and subcutaneous tissue disorders: Adverse Reactions Grade 2 N: 9
  Skin and subcutaneous tissue disorders: Adverse Reactions Grade 3 N: 3
  Vascular disorders: Adverse Events Grade 1 N: 2
  Vascular disorders: Adverse Events Grade 2 N: 0
  Vascular disorders: Adverse Events Grade3 N: 0
  Vascular disorders: Adverse Reactions Grade 1 N: 0
  Vascular disorders: Adverse Reactions Grade 2 N: 0
  Vascular disorders: Adverse Reactions Grade 3 N: 0
human, in vivo
  further AEs reported: 366
N (%) of 16 patients
  ALT Increased: Number of patients experiencing at least one grade <2AE: 5 (31%)
  AST Increased: Number of patients experiencing at least one grade <2AE: 7 (44%)
  Albumin Decreased: Number of patients experiencing at least one grade <2AE: 3 (19%)
  CPK Increased: Number of patients experiencing at least one grade <2AE: 9 (56%)
  Fatigue: Number of patients experiencing at least one grade <2AE: 9 (56%)
  Nausea: Number of patients experiencing at least one grade <2AE: 7 (44%)
  Red Blood Cell Count Decreased: Number of patients experiencing at least one grade <2AE: 7 (44%)
  Vomiting: Number of patients experiencing at least one grade <2AE: 3 (19%)
number
  serious adverse event (SAE), unrelated to study treatment: one
  serious adverse reactions (SARs): two
Number of events
  AEs graded 1 or 2: 360
Number of events, in five separate patients
  grade 3 AEs (non-serious): six
Of the further 366 AEs
  AEs categorised as grade 1 or 2: 98%
  AEs deemed as ARs: 69%
